The values that follow come from the METLIN SMRT retention time set (Domingo-Almenara et al. 2019).

A short description of the data set: gradient 5% acetonitrile 3 min, to 50% in 2 min, to 85% in 15 min, held 3 min, 100 µL/min. The settings on record: column: Zorbax Extend-C18 2.1 x 50 mm; eluents: water / acetonitrile, 0.1% formic acid. A digest of the protocol: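 Over 3 months, pure standards in mixtures of ~100 molecules were run by HPLC coupled to a quadrupole time-of-flight mass spectrometer in positive and negative ionization mode. The column was a Zorbax Extend-C18 (2.1 × 50 mm, 1.8 μm) at 100 μL/min, eluted with water and acetonitrile each holding 0.1% formic acid, with 40 μL dead and 900 μL dwell volumes. Retention time was determined from adduct peaks chosen by software and checked manually.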
The compound `CCNC(=O)c1nn(-c2ccc(F)cc2)c(OC)cc1=O` gave an RP-LC retention time of 645 s. Under `CC(NC(=O)Cc1nnc(-c2cnccn2)o1)c1ccc(F)cc1` (centres undefined) stands 681 s. Under `Cc1ccc(CNC(=O)Nc2cccc(-c3ccc(N4CCC(C)CC4)nn3)c2)cc1` stands 784 s. Compound `O=C(c1ccsc1)N1CCN(c2ncnc3c2CCC3)CC1` displayed an RP-LC retention time of 557 s.

Compound `CCCN1C(=O)c2ccccc2Sc2cc(-c3noc(CNC(C)=O)n3)ccc21` showed an RP-LC retention time of 775 s. In turn, `Cc1nc(-c2csc(S(=O)(=O)N3CCCC(C(=O)NCCc4sccc4C)C3)c2)no1` (centres undefined) displayed an RP-LC retention time of 932 s. Compound `O=C(Cn1c(=O)cc(-c2nc(C3CC3)no2)c2ccccc21)NCc1ccc(F)cc1` returned an RP-LC retention time of 923 s. The compound `COC(=O)C1=CN(c2cccc(C#N)c2)c2ccccc2S1(=O)=O` gave an RP-LC retention time of 754 s. `CCn1ccc2sc(C)c(C(=O)NCc3cc(OC)ccc3OC)c2c1=O` returned an RP-LC retention time of 716 s. For `CN(CC1CCOCC1)C(=O)Cc1ccc(F)cc1`, the RP-LC retention time was 687 s. Consider `COC(=O)c1cccc(NC(=O)c2cnc(-c3ccc(F)cc3)nc2-c2ccncc2)c1`, for which the RP-LC retention time turned out to be 912 s. Compound `CCCN1C(=O)COc2ccc(-c3csc(NC(=O)c4ccc(Br)cc4)n3)cc21` registered an RP-LC retention time of 1160 s. Under `Cc1nc(-n2cccc2)sc1C(=O)NCc1ccc(C(C)C)cc1` stands 1130 s; under `CCOc1ccc(NC(=O)C2CCN(S(C)(=O)=O)c3cc(Cl)ccc3O2)cc1` (centres undefined), 877 s.

Consider `COc1ccc(CNC(=O)CN2C(=O)CC(c3cccs3)=Nc3ccccc32)cc1`, for which the RP-LC retention time worked out at 863 s.

The compound `COc1ccc(C(=O)N2CCN(c3cc(-c4cccs4)[nH]n3)CC2)c(OC)c1` showed an RP-LC retention time of 739 s. On to `CN1C(=O)COc2cc(-c3noc(C(=O)N4CCCC4)n3)ccc21`, for which the RP-LC retention time was 746 s. In the case of `O=C(NC1CC1)c1cc(-c2cccc(F)c2)ns1`, the RP-LC retention time worked out at 882 s. `COc1ccc(NC(=O)Cn2nc3nc(N4CCCC4)ccn3c2=O)cc1OC` displayed an RP-LC retention time of 617 s. In turn, `Cc1cc(C(=O)Nc2ccc(-c3nc4ccccc4o3)cc2)c(C)o1` showed an RP-LC retention time of 1020 s.

In the case of `Cc1cc(N2CCOCC2)nc(N2CCN(S(=O)(=O)c3cc(C)c(C)cc3C)CC2)n1`, the RP-LC retention time is 733 s. The compound `Cc1ccc2c(Nc3cccc(Cl)c3)c(-c3nc(C)no3)cnc2n1` registered an RP-LC retention time of 808 s.

`O=C(Nc1cnn(-c2ncc(N3CCSCC3)cn2)c1)C1CCCC1` showed an RP-LC retention time of 737 s. Next, `Brc1ccc(OCc2nnc3sc(CCc4ccccc4)nn23)cc1`: 1060 s. The compound `Cc1oc(C2CCN(S(=O)(=O)c3cccc(Cl)c3)CC2)nc1C(=O)N(C)C` came in with an RP-LC retention time of 864 s. For the compound `CC(C)C[C@H](NC(=O)Cn1cnc2ccccc2c1=O)C(=O)O`, the RP-LC retention time came out at 649 s. With `Cc1noc(C)c1S(=O)(=O)N1CCC(Cc2nc(-c3cccnc3)n[nH]2)C1` (centres undefined), the RP-LC retention time turned out to be 624 s.

`CCOC(=O)c1ccc(NC(=O)N(Cc2cc(=O)[nH]c3ccccc23)C(C)C)cc1` returned an RP-LC retention time of 772 s. Under `Cc1noc(C)c1CC(=O)N1CCOc2ccc(N(C)C)cc2C1` stands 584 s. `Cc1ccc(-c2cc3c(=O)n(Cc4noc(CN5CCOCC5)n4)ccn3n2)c(C)c1` returned an RP-LC retention time of 792 s. The compound `Cc1cc(-c2nnc(-c3ccccc3)o2)c(C)n1CC(=O)Nc1cc(F)ccc1F` returned an RP-LC retention time of 994 s. `CN1C(=O)CSc2cnn(CC(=O)NC3CCCCC3)c(=O)c21` had an RP-LC retention time of 646 s. The compound `O=C(NCC(=O)N1CC[C@H](NC2CCC(O)(c3ccc(-c4ncccn4)cn3)CC2)C1)c1cccc(C(F)(F)F)c1` (some centres undefined) registered an RP-LC retention time of 674 s. `CCc1nc(OCC(=O)NCc2ccc(N(C)C)cc2)c2c(C)c(C)oc2n1` showed an RP-LC retention time of 689 s. Consider `Cc1ccc(NC(=O)N2CCN(C(=O)N3C[C@H]4C[C@H](C3)[C@H]3CCCC(=O)N3C4)CC2)cc1C`, for which the RP-LC retention time is 698 s. In turn, `O=C(Nc1ccc(Cl)cc1)C(=O)c1cn(CC(=O)N2CCOCC2)c2ccccc12` registered an RP-LC retention time of 959 s.

For the compound `Cc1ccc(C(=O)N2CCN(c3nnc4cccc(C)n34)CC2)s1`, the RP-LC retention time turned out to be 659 s.

`Cc1noc(C)c1CC(=O)N1CCC2(CC1)N(CC1CC1)C(=O)CS2=O` (centres undefined) had an RP-LC retention time of 613 s.

Regarding `COc1ccc(NC(=O)N2CCc3nc[nH]c3C2)cc1Cl`, the RP-LC retention time came to 580 s. Turning to `CCc1ccc(CNC(=O)CN2C(=O)NC3(CCCCC3)C2=O)cc1`, the RP-LC retention time was 792 s. For the compound `CCCN(CC1CCOC1)S(=O)(=O)c1ccccc1CC` (centres undefined), the RP-LC retention time turned out to be 992 s. Turning to `Cc1ccc(S(=O)(=O)N2C(=O)CCC2C(=O)NC2CCC(C)CC2)cc1` (centres undefined), the RP-LC retention time came out at 958 s. For `CCOC(=O)Cn1cccc(S(=O)(=O)N2CCC(C)CC2)c1=O`, the RP-LC retention time worked out at 814 s. `Cn1cnc2c(C(=O)NCc3ccco3)nn(-c3ccc(Cl)cc3)c2c1=O` returned an RP-LC retention time of 834 s. `O=C(NCc1ccc2c(c1)OCO2)c1ccc2ncnc(N3CCCC3)c2c1` gave an RP-LC retention time of 630 s. Consider `O=C(NCc1ccccc1Cl)C1=C2CCCN2c2ccc(F)cc2S1(=O)=O`, for which the RP-LC retention time was 913 s. `O=C(Cn1cc(S(=O)(=O)N2CCCC2)ccc1=O)N1CCCc2ccccc21`: the RP-LC retention time turned out to be 782 s.

Take `O=C(Cn1nc(N2CCOCC2)c2ccccc2c1=O)Nc1ccc2c(c1)OCO2`: the RP-LC retention time stood at 733 s.

Compound `CCc1noc(NC(C)=O)c1-c1ccc(C)c(S(=O)(=O)Nc2c(C)cccc2C)c1` gave an RP-LC retention time of 861 s. Next, `CCOc1ccc(NC(=O)C2(C)Oc3cccnc3N(C(C)C)C2=O)cc1` (centres undefined): 1000 s; `O=C(NCc1ccsc1)C(=O)NCc1ccccc1Cl`: 842 s. As for `O=C(Nc1ccccc1F)NC1CCCN(c2cc(-c3ccncc3)[nH]n2)C1` (centres undefined), the RP-LC retention time is 621 s. Turning to `O=C1C[C@@H](c2ccc(O)c(O)c2)Oc2c1ccc(O[C@@H]1O[C@H](CO)[C@@H](O)[C@H](O)[C@H]1O)c2O`, the RP-LC retention time came out at 617 s. Under `COCc1nn(C)c2c1CN(S(=O)(=O)c1cccc(C#N)c1)CC2` stands 676 s; under `O=c1c2scc(-c3ccc(Cl)cc3)c2ncn1Cc1cc(=O)n2ccccc2n1`, 878 s.

As to `Cc1ccc(NC(=O)C(C)C2CCN(C(=O)Nc3ccc(F)cc3)CC2)cc1Cl` (centres undefined), the RP-LC retention time stood at 974 s. Next, `CCOC(=O)C1=C(CN2CCC(C(=O)OCC)CC2)NC(=O)NC1c1ccc(C)cc1` (centres undefined): 665 s; `Cc1ccc(CNC(=O)Cn2cccc2-c2nnc(-c3ccccc3)o2)o1`: 882 s.

Take `Cc1cc(OCC(=O)Nc2cccc(C)c2C)nc(N2CCN(c3ccccc3)CC2)n1`: the RP-LC retention time is 885 s. `CC(=O)N1C[C@@H](C(=O)NCc2cccs2)[C@H](c2nc(C)no2)C1` came in with an RP-LC retention time of 630 s. Under `Cc1ccc(-c2nnc(Cc3nc(-c4ccc5c(c4)OCO5)no3)o2)cc1F` stands 1020 s; under `COc1ccc(N2CCN(c3ccc(-c4nc(-c5cccc(F)c5)no4)cn3)CC2)cc1`, 1310 s.

`Cc1ccccc1CNC(=O)C1CCCN(c2nccnc2Sc2ccccc2)C1` (centres undefined) returned an RP-LC retention time of 1200 s. Consider `CCN1C(=O)COc2ccc(-c3noc(-c4cccc(OC)c4OC)n3)cc21`, for which the RP-LC retention time was determined as 1060 s. For `O=C(Nc1ccccc1)c1nnc(CSCC(=O)N2CCN(c3ccccn3)CC2)s1`, the RP-LC retention time is 631 s. Under `Cn1cc(-c2cc3n(n2)CCCN3C(=O)CCC(=O)NCCCN2CCCC2)c2ccccc21` stands 620 s. On to `Cc1cccc(Nc2c(-c3ccccc3)nc3nc(C)cc(C)n23)c1`, for which the RP-LC retention time is 741 s. Consider `COc1ccc(Cl)cc1C(=O)Nc1ccc2c(c1)C(=O)NCCO2`, for which the RP-LC retention time was found to be 951 s. As to `O=C(c1ccc(Br)o1)N1CCC(c2cnn(-c3ccccc3)c2)CC1`, the RP-LC retention time is 957 s.

For the compound `O=C(NCc1cc(F)cc(F)c1)c1c(O)c2cccnc2n(-c2ccc(F)cc2)c1=O`, the RP-LC retention time was 1180 s. Consider `CCOc1ccc(-c2cc3c(=O)n(Cc4nc(-c5ccc(C)cc5)no4)ncn3n2)cc1`, for which the RP-LC retention time was 784 s. Consider `COc1cccc(CNC2=NCCNC23CCN(S(=O)(=O)c2ccccc2)CC3)c1`, for which the RP-LC retention time was found to be 678 s. Consider `COc1ccc(C2CC(=O)N(c3cccc(OC)c3)C(=O)C2)cc1`, for which the RP-LC retention time came out at 860 s. Consider `Cc1ccc(C)c(NC(=O)N2CCN(CCn3c(C(C)C)nc4cccnc43)CC2)c1`, for which the RP-LC retention time came out at 621 s. For `O=C(Cc1csc2nc(-c3ccccc3)cn12)N1CCN(c2ccc(Cl)cc2)CC1`, the RP-LC retention time turned out to be 915 s. Next, `CCCN1CCN(C(=O)C2CCN(S(=O)(=O)c3ccc4c(c3)NC(=O)C(C)S4)CC2)CC1` (centres undefined): 593 s; `CCN(Cc1ccncc1)C(=O)C(CO)c1ccccc1` (centres undefined): 619 s. As for `CCOC(=O)c1sc(NC(=O)Cn2nc3c(cc2=O)CCCCC3)nc1C`, the RP-LC retention time was found to be 853 s. Take `CN1C(=O)CSc2ccc(NC(=O)N3CCN(c4ccccn4)CC3)cc21`: the RP-LC retention time worked out at 579 s.
